Measurements as given in patent publication US20240398836A1, “EPOXY STEROIDS” (priority 2021, published 2024).

Legend:
[1] = test system: NaKu cells; assay: Apoptosis induction in steroid- and polycytostatics-resistant NaKu cells vs Nalm-6; type: cell-based; details: steroid- and polycytostatics-resistant leukemia cells (ALL)
Experimental: The experiments were performed in triplicate. The error bars show the standard deviations of the measured values of three independent experiments.
The steroid WIL 071 overcomes steroid resistence in leukemia cells (NaKu cells). Further, the steroid-resistent leukemia cells (NaKu cells) have co-resistencies for the following cytostatics: • prednisolone, methylprednisolone, dexamethasone, • doxorubicin, daunorubicin, idarubicin, epirubicin • cytarabine, cladribine • etoposide • cyclophosphamide, ifosfamide • vindesine • cisplatin, carboplatin, oxaliplatin

[2] = Tolerability (dose escalation, MTD) in an animal model; type: in vivo, NOG-F (Taconic) mice
Experimental: An incremental increase of dose of the three substances Wil-071, Wil-232 and Wil-369 was performed in 8-week-old female NOG-F (Taconic) mice. Different mice were administered one of up to seven different doses of the test substances. The start was on day 1 with the lowest dose of 10 mg/kg. […] All in all, if possible, the doses 10, 20, 40, 80, 100, 150 and 200 mg/kg are tested. Subsequently, the maximum tolerable dose (MTD) was administered to three more animals, and these were subsequently observed for one week, in order to be able to observe any developing symptoms. For this purpose, the animals were observed and weighed on a daily basis. The body weight is considered an indicator of the general condition of the animals.
For the MTD experiment, Wil-071 was dissolved in 100% DMSO, and then diluted 1:50 with a 20% (w/v) 2-hydroxypropyl-beta-cyclodextrin (HPβCD) solution. Thus, 200 μL of injection solution (per mouse) of a 40 mg/kg dose could be achieved. For 80, 100 and 150 mg/kg, the DMSO proportion was increased to up to 4% (v/v) in the final injection solution. In addition, ultrasound had to be employed, and the sample had to be heated at 60° C. for up to 45 min. 200 mg/kg was reached only as a milky suspension. […] Therefore, Wil-071 can be considered non-toxic up to 150 mg/kg. The final MTD could not be determined because of the insufficient solubility.
For 100 mg/kg of Wil-232, the end concentration of DMSO in the injection solution was 2%. In order to dissolve Wil-232, the sample also had to be treated with ultrasound, and heated at 60° C. The dose of 150 mg/kg was achieved only with 4% DMSO, and 200 mg/kg was achieved only as a suspension. […] Otherwise, there were no signs of toxicity, so that the substance can be considered tolerable up to 150 mg/kg. In this case too, a final MTD cannot be determined because of insufficient solubility.
Using a DMSO stock and 20% HPβCD solution, a maximum of only 5 mg/ml was dissolved. A further increase could not be achieved even with more DMSO or HPβCD. Thus, above the dose of 40 mg/kg, a higher injection volume was injected in order to reach the corresponding dose. […] For the tolerability under the current solubility conditions, a value of […] is to be applied. This dose was injected into the 8 animals for pharmacokinetics. In this case too, a final MTD cannot be determined because of insufficient solubility.

CC(C)CCC[C@@H](C)[C@H]1CC[C@H]2[C@@H]3[C@H]4OC[C@@]5(CC[C@H](O)C[C@]5(O)C4=O)[C@H]3CC[C@]12C [WIL-071, 3β,5α-dihydroxy-7β,19-epoxy-cholestan-6-one]
apoptosis induction in resistant NaKu cells compared with Nalm-6 [1]: induces as much apoptosis as in the non-resistent leukemia cells (Nalm-6)
outcome of injection of the 200 mg/kg suspension ([2]; 200 mg/kg as suspension, signs of pulmonary embolism in section): immediate death of the animal
dose up to which non-toxic / tolerable ([2]; injection into caudal vein, mice, final MTD not determinable because of solubility): up to 150 mg/kg
